According to EPA's ToxRefDB 2:

Columns and labels:
rat [1] = conditions: Combined chronic toxicity/carcinogenicity, fischer, Oral, Feed, dose end: 2 year, group: systemic
rat [2] = conditions: Multigenerational reproductive toxicity study, other, Oral, Gavage/Intubation, dose end: 2 generation
mouse [3] = conditions: Prenatal developmental toxicity study, cd1, Oral, Feed, dose end: 15 GD
rat [4] = conditions: Multigenerational reproductive toxicity study, other, Oral, Gavage/Intubation, dose end: 2 generation; remark: listed apart in the source
rat [5] = conditions: Combined chronic toxicity/carcinogenicity, fischer, Oral, Feed, dose end: 2 year, group: systemic; remark: listed apart in the source
mouse [6] = conditions: Subchronic oral toxicity in rodents, b6c3f1, Feed, dose end: 91 day, group: systemic, systemic / in life observation / body weight / body weight gain
mouse [7] = conditions: Carcinogenicity; b6c3f1; Oral; Feed; dose end: 2 year; group: systemic; systemic / in life observation / body weight / body weight
rat [8] = conditions: Fertility (Segment I), fischer, Oral, Feed, dose end: 16 weeks (premating)
rat [9] = conditions: Prenatal developmental toxicity study, sprague dawley, Oral, Feed, dose end: 15 GD
rat [10] = conditions: Subchronic oral toxicity in rodents, fischer, Feed, dose end: 26 week, group: systemic
[11] = systemic / organ weight / kidney / relative to body weight
[12] = group: offspring, systemic / clinical chemistry / triiodothyronine (t3) / triiodothyronine (t3), total + systemic / in life observation / body weight / …
[13] = group: parental, systemic / in life observation / clinical signs / salivation + systemic / organ weight / kidney / absolute + systemic / organ weight / …
[14] = group: reproductive, reproductive / offspring survival early / live fetuses / live fetuses
[15] = group: developmental, developmental / developmental malformation / bone / exencephaly + developmental / developmental malformation / bone / [other] + …
[16] = group: maternal, reproductive / offspring survival early / litter size / litter size + reproductive / offspring survival early / live fetuses / live fetuses…
[17] = group: offspring, developmental / developmental landmark / anogenital distance (agd) / anogenital distance (agd)
[18] = group: reproductive, reproductive / reproductive performance / fertility / fertility
[19] = systemic / in life observation / body weight / body weight + systemic / in life observation / food consumption / food consumption + systemic…
[20] = systemic / pathology gross / full gross necropsy / leukemia mononuclear + systemic / in life observation / body weight / body weight + …
[21] = group: maternal, reproductive / reproductive performance / fertility / fertility
[22] = group: parental, systemic / hematology / erythrocyte (rbc) count differential / erythrocyte (rbc) + systemic / hematology / hemoglobin (hgb) / hemoglobin (…
[23] = group: developmental, developmental / developmental malformation / bone / [other] + developmental / developmental malformation / bone / bipartite ossification + …
[24] = group: maternal, reproductive / reproductive performance / resorptions / resorptions + systemic / in life observation / body weight / body weight + systemic…
[25] = systemic / hematology / anemia / anemia - macrocytic + systemic / hematology / erythrocyte (rbc) count differential / erythrocyte (rbc) + …

CCCCOC(=O)c1ccccc1C(=O)OCc1ccccc1 [Butyl benzyl phthalate]
LOAEL (rat [1]; systemic / in life observation / body weight / body weight + systemic / pathology microscopic / pancreas / hyperplasia): 500 mg/kg/day
NOAEL (rat [1]; systemic / in life observation / body weight / body weight + systemic / pathology microscopic / pancreas / hyperplasia + systemic / …): 240 mg/kg/day
LEL (rat [1]; [11]): 120 mg/kg/day
NEL (rat [1]; [11]): < 120 mg/kg/day
LEL (rat [2]; [12]): 100 mg/kg/day
LOAEL (rat [2]; [12]): > 500 mg/kg/day
NEL (rat [2]; [12]): 20 mg/kg/day
NOAEL (rat [2]; [12]): ≥ 500 mg/kg/day
LEL (rat [2]; [13]): 100 mg/kg/day
LOAEL (rat [2]; [13]): > 500 mg/kg/day
NEL (rat [2]; [13]): 20 mg/kg/day
NOAEL (rat [2]; [13]): ≥ 500 mg/kg/day
LEL (rat [2]; [14]): 500 mg/kg/day
LOAEL (rat [2]; [14]): > 500 mg/kg/day
NEL (rat [2]; [14]): 100 mg/kg/day
NOAEL (rat [2]; [14]): ≥ 500 mg/kg/day
LEL (mouse [3]; group: developmental, developmental / developmental malformation / bone / exencephaly): 910 mg/kg/day
LOAEL (mouse [3]; [15]): > 2330 mg/kg/day
NEL (mouse [3]; [15]): 182 mg/kg/day
NOAEL (mouse [3]; [15]): ≥ 2330 mg/kg/day
LEL (mouse [3]; group: maternal, reproductive / offspring survival early / litter size / litter size + reproductive / offspring survival early / live fetuses / live fetuses): 910 mg/kg/day
LOAEL (mouse [3]; [16]): > 2330 mg/kg/day
NEL (mouse [3]; [16]): 182 mg/kg/day
NOAEL (mouse [3]; [16]): ≥ 2330 mg/kg/day
LEL (rat [4]; [17]): 100 mg/kg/day
LOAEL (rat [4]; [17]): 100 mg/kg/day
NEL (rat [4]; [17]): < 100 mg/kg/day
NOAEL (rat [4]; [17]): < 100 mg/kg/day
LEL (rat [4]; group: parental, systemic / in life observation / clinical signs / salivation + systemic / organ weight / kidney / absolute + systemic / organ weight / liver…): 200 mg/kg/day
LOAEL (rat [4]; [13]): > 400 mg/kg/day
NEL (rat [4]; [13]): 100 mg/kg/day
NOAEL (rat [4]; [13]): ≥ 400 mg/kg/day
LEL (rat [4]; [18]): 400 mg/kg/day
LOAEL (rat [4]; [18]): > 400 mg/kg/day
NEL (rat [4]; [18]): 200 mg/kg/day
NOAEL (rat [4]; [18]): ≥ 400 mg/kg/day
LEL (rat [5]; [19]): 300 mg/kg/day
NEL (rat [5]; [19]): < 300 mg/kg/day
LOAEL (rat [5]; [20]): > 600 mg/kg/day
NOAEL (rat [5]; [20]): ≥ 600 mg/kg/day
LEL (mouse [6]): 240 mg/kg/day
LOAEL (mouse [6]): > 3750 mg/kg/day
NEL (mouse [6]): < 240 mg/kg/day
NOAEL (mouse [6]): ≥ 3750 mg/kg/day
LEL (mouse [7]): 900 mg/kg/day
LOAEL (mouse [7]): 900 mg/kg/day
NEL (mouse [7]): < 900 mg/kg/day
NOAEL (mouse [7]): < 900 mg/kg/day
LEL (rat [8]; [21]): 2200 mg/kg/day
LOAEL (rat [8]; [21]): > 2200 mg/kg/day
NEL (rat [8]; [21]): 200 mg/kg/day
NOAEL (rat [8]; [21]): ≥ 2200 mg/kg/day
LOAEL (rat [8]; [22]): > 2200 mg/kg/day
NEL (rat [8]; [22]): 20 mg/kg/day
NOAEL (rat [8]; [22]): ≥ 2200 mg/kg/day
LEL (rat [8]; group: parental, systemic / pathology gross / sperm measure / sperm count): 200 mg/kg/day
LOAEL (rat [9]; [23]): > 1640 mg/kg/day
NEL (rat [9]; [23]): 420 mg/kg/day
NOAEL (rat [9]; [23]): ≥ 1640 mg/kg/day
LEL (rat [9]; group: developmental, developmental / developmental malformation / bone / short supernumerary): 1100 mg/kg/day
LOAEL (rat [9]; [24]): > 1640 mg/kg/day
NEL (rat [9]; [24]): 420 mg/kg/day
NOAEL (rat [9]; [24]): ≥ 1640 mg/kg/day
LEL (rat [9]; group: maternal, systemic / in life observation / body weight / body weight + systemic / in life observation / body weight / body weight gain + systemic / in…): 1100 mg/kg/day
LOAEL (rat [10]; [25]): 1250 mg/kg/day
NEL (rat [10]; [25]): 60 mg/kg/day
NOAEL (rat [10]; [25]): 550 mg/kg/day
LEL (rat [10]; systemic / hematology / erythrocyte (rbc) count differential / erythrocyte (rbc)): 180 mg/kg/day
